Assay results as given in publication PMC6271590, “Phenoxyacetohydrazide Schiff Bases: β-Glucuronidase Inhibitors” (Molecules, 2014).
“And” between values parts separate entries of the source, which are not always exact repeats. Identical values can stand only once.

Target: T1, β-Glucuronidase (E.C. 3.2.1.31 from bovine liver) (Bos taurus, UniProt A3KMY8)
T1 construct: β-Glucuronidase (E.C. 3.2.1.31 from bovine liver, G-0251); purchased Sigma Chemical Co. (St. Louis, MO, USA) G-0251; host or cells: bovine liver (tissue-derived preparation)
T1 sequence (A3KMY8 1-652): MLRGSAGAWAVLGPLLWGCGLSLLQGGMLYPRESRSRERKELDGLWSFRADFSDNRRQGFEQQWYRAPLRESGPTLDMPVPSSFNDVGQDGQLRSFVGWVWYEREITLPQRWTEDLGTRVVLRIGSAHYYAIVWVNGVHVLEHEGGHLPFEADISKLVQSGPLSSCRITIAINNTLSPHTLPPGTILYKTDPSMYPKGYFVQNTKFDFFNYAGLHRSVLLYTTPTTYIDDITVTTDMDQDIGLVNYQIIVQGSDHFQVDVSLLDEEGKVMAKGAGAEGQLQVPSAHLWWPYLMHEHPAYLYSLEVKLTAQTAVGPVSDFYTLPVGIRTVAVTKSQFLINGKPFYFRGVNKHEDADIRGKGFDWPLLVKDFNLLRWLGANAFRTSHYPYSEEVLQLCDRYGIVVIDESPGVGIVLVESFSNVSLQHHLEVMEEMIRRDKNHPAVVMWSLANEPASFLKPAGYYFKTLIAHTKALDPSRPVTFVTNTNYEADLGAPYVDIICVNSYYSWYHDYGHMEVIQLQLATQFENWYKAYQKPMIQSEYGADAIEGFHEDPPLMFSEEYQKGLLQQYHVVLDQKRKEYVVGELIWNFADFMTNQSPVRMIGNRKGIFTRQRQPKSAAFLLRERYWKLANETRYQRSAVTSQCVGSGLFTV
Assay: In vitro β-glucuronidase inhibition assay (p-nitrophenyl-β-D-glucuronide, absorbance at 405 nm)
Type: biochemical
Conditions: for IC50: bovine liver enzyme, substrate p-nitrophenyl-β-D-glucuronide, 37 °C, 30 min, triplicate, ± SEM, NA = Not active; for β-glucuronidase inhibitory activity in words: qualitative statement
Method: Synthetic acyl hydrazides Schiff bases 1–28 were screened for their in vitro potential as β-glucoronidase inhibitors. The in vitro β-glucornidase inhibitory potential was evaluated by using the literature protocol.
β-Glucuronidase (E.C. 3.2.1.31 from bovine liver, G-0251) and p-nitrophenyl-β-D-glucuronide (N-1627) were purchased From Sigma Chemical Co. (St. Louis, MO, USA). Anhydrous Na2CO3 and all other reagents of standard grade were obtained from E. Merck. The anhydrous EtOH and CHCl3 used in the experiments were dried employing the standard methods. All other solvents and reagents like the benzoyl chloride were of standard grade.
β-D-Glucuronidase inhibition was determined by measuring the absorbance of the p-nitrophenol which is produce from the substrate at 405 nm. The total reaction volume was 250 µL. The reaction mixture contains 5 µL of test compound solution, 185 µL of 0.1 M acetate buffer, and 10 µL of enzyme, and it was incubated at 37 °C for 30 min. The plates were read on a multiplate reader at 405 nm after the addition of 50 µL of 0.4 mM p-nitrophenyl-β-D-glucuronide. All assays were performed in triplicate.

SMILES | IC50 | β-glucuronidase inhibitory activity in words | activity relative to the standard D-saccharic acid-1,4-lactone (fold better than standard by IC50)
Cc1cc(Cl)ccc1OCC(=O)NN=Cc1ccsc1 [Compound 12, 2-(4-Chloro-2-methylphenoxy)-N'-[3-thienylmethylidene]acetohydrazide] | 30.7 ± 1.49 µM | excellent activity | 
Cc1cc(Cl)ccc1OCC(=O)NN=Cc1ccccc1F [Compound 11, 2-(4-Chloro-2-methylphenoxy)-N'-[-(2-fluorophenyl)methylidene]acetohydrazide] | 19 µM and 19.6 µM | excellent activity | 
Cc1cc(Cl)ccc1OCC(=O)NN=Cc1ccccc1[N+](=O)[O-] [Compound 5, 2-(4-Chloro-2-methylphenoxy)-N'-[(2-nitrophenyl)methylidene]acetohydrazide] | 9.47 ± 0.16 µM | excellent activity | 
Cc1cc(Cl)ccc1OCC(=O)NN=Cc1ccc(Cl)cc1 [Compound 7, 2-(4-Chloro-2-methylphenoxy)-N'-[-(4-chlorophenyl)methylidene]acetohydrazide] | 14.7 ± 0.19 µM | excellent activity | 
Cc1cc(Cl)ccc1OCC(=O)NN=Cc1cccc([N+](=O)[O-])c1 [Compound 6, 2-(4-Chloro-2-methylphenoxy)-N'-[(3-nitrophenyl)methylidene]acetohydrazide] |  | inactivity | 
COc1ccccc1C=CC=NNC(=O)COc1ccc(Cl)cc1C [Compound 1] | 9.2 ± 0.32 µM | excellent activity | fivefold better than the standard
Cc1cc(Cl)ccc1OCC(=O)NN=Cc1ccc2ccccc2c1 [Compound 22, 2-(4-Chloro-2-methylphenoxy)-N'-[-2-naphthylmethylidene]acetohydrazide] | 22 ± 0.14 µM | excellent activity | 
Cc1cc(Cl)ccc1OCC(=O)NN=Cc1cccc(O)c1 [Compound 18, 2-(4-Chloro-2-methylphenoxy)-N'-[(3-hydroxyphenyl)methylidene]acetohydrazide] |  | completely inactive | 
Cc1ccc(C=NNC(=O)COc2ccc(Cl)cc2C)o1 [Compound 14, 2-(4-Chloro-2-methylphenoxy)-N'-[-(5-methyl-2-furyl)methylidene]acetohydrazide] |  | completely inactive | 
Cc1cc(Cl)ccc1OCC(=O)NN=Cc1ccc(O)c(O)c1 [Compound 16, 2-(4-Chloro-2-methylphenoxy)-N'-[-(3,4-dihydroxyphenyl)methylidene]acetohydrazide] |  | completely inactive | 
Cc1cc(Cl)ccc1OCC(=O)NN=Cc1ccc(Cl)c(Cl)c1 [Compound 9, 2-(4-Chloro-2-methylphenoxy)-N'-[(3,4-dichlorophenyl)methylidene]acetohydrazide] |  | completely inactive | 
Cc1cc(Cl)ccc1OCC(=O)NN=Cc1c(Cl)cccc1Cl [Compound 10, 2-(4-Chloro-2-methylphenoxy)-N'-[(2,6-dichlorophenyl)methylidene]acetohydrazide] |  | completely inactive | 

Other lines, results leading:

IC50 | β-glucuronidase inhibitory activity in words | activity relative to the standard D-saccharic acid-1,4-lactone (fold better than standard by IC50) | SMILES
 | completely inactive |  | Cc1cc(Cl)ccc1OCC(=O)NN=Cc1ccc(O)cc1 [Compound 20, 2-(4-Chloro-2-methylphenoxy)-N'-[(4-hydroxyphenyl)methylidene]acetohydrazide]
 | completely inactive |  | CC(=NNC(=O)COc1ccc(Cl)cc1C)c1c(O)cc(O)cc1O [Compound 19, 2-(4-Chloro-2-methylphenoxy)-N'-[1-(2,4,6-trihydroxyphenyl)ethylidene]acetohydrazide]
 | completely inactive |  | CC(=NNC(=O)COc1ccc(Cl)cc1C)c1ccc(O)cc1 [Compound 17, 2-(4-Chloro-2-methylphenoxy)-N'-[1-(4-hydroxyphenyl)ethylidene]acetohydrazide]
13.7 ± 0.4 µM | excellent activity |  | Cc1cc(Cl)ccc1OCC(=O)NN=Cc1cccc2ccccc12 [Compound 21, 2-(4-Chloro-2-methylphenoxy)-N'-[-1-naphthylmethylidene]acetohydrazide]
12 ± 0.16 µM | excellent activity |  | Cc1cc(Cl)ccc1OCC(=O)NN=Cc1cccc(O)c1O [Compound 15, 2-(4-Chloro-2-methylphenoxy)-N'-[-(2,3-dihydroxyphenyl)methylidene]acetohydrazide]
 | inactive |  | COc1ccc(C=CC=NNC(=O)COc2ccc(Cl)cc2C)cc1 [Compound 2]
 | completely inactive |  | Cc1cc(Cl)ccc1OCC(=O)NN=Cc1ccco1 [Compound 13, 2-(4-Chloro-2-methylphenoxy)-N'-[-2-furylmethylidene]acetohydrazide]
